Experimental data from patent US20220402950A1, “SUBSTITUTED BENZIMIDAZOLES AS PAD4 INHIBITORS” (BRISTOL-MYERS SQUIBB COMPANY, priority 2018, published 2022).
Read-outs that look alike come from different tables or passages of the source.

Target: human PAD4 (hPAD4) (Homo sapiens, UniProt Q9UM07)
Experiment: RFMS Human PAD4 Functional Assay
Assay type: biochemical
Conditions: 5 nM hPAD4, 250 μM BAEE
Experimental: RFMS Human PAD4 Functional Assay:
Compounds were solubilized in 100% DMSO to achieve a 10 mM compound concentration. Compound stock solutions were stored at RT. A series of dilutions were prepared in DMSO and mixed 8 times with 20 μL mixing volume. Final top concentration of compound in the assay is 50 μM.
0.13 μL of compound solution was added to 13 μL of 10 nM PAD4 in assay buffer. After 30 min 13 μl of 500 μM of BAEE was added in 25 mM hepes, pH 7.5, 5 mM NaCl, 1 mM DTT, 0.2 mg/ml BSA, 0.01% CHAPS, 50 μM Calcium, 5 μM TPEN was added and the reaction incubated for 90 min at 37° C. The enzymatic reaction was quenched by addition of 15 μl of 6.1N TCA, 100% Final Concentration is 20%, 35 μl of 8.5 mM phenyl glyoxal (final concentration 4 mM) is then added and the reaction is incubated for 30 min at 37° C.
After 30 minutes the plates are spun down to remove all precipitate. The enzyme reaction was quenched with an equal volume of methanol containing internal standard (modified citrulline). Samples were loaded onto the Rapid Fire RF300 system (Agilent) wherein they were first sipped for 1000 ms and then directly loaded to a C18 separations cartridge using a mixture of acetonitrile containing 0.01% formic acid for 3000 ms desalting. The flow rate of the mobile phase was 1.5 ml/min.
The dwell time for each transition was set at 200 ms, and the ESI voltage was used at 5500 with a source temperature of 400° C. Extracted ion peaks for each transition were integrated using the Rapid Fire Integrator software. Peak area of analyte was normalized with internal standard.).

[1] = hPAD4 RFMS IC50, human PAD4, rapid-fire mass spectrum (RFMS) assay

Chain of human PAD4 (hPAD4) (Q9UM07 whole entry): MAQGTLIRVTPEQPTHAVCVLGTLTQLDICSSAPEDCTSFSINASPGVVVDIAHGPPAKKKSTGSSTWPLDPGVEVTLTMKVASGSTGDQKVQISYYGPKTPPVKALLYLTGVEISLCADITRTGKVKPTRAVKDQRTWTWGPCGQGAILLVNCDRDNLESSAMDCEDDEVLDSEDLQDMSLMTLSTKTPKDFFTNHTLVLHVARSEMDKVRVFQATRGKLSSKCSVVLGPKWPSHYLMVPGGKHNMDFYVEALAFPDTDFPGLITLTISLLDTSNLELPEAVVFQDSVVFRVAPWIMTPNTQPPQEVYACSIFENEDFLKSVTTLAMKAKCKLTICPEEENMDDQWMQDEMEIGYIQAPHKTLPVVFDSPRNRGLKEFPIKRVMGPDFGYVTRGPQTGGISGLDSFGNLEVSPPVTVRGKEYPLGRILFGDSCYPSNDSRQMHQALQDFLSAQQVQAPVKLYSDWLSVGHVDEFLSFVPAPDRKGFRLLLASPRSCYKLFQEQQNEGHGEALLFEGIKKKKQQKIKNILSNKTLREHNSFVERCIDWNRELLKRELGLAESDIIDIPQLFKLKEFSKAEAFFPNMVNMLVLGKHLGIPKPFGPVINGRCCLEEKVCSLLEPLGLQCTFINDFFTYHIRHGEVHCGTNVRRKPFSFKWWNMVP

IC50 [1]	IC50 (human PAD4, rapid-fire mass spectrum (RFMS) assay, read-out: hPAD4 RFMS IC50)	SMILES
42 nM	–	COc1cc(C(=O)N2C[C@H]3CC[C@@H]2[C@@H]3N)cc2nc(-c3cc4cccc(C5CN(C)C5)c4n3CC3CC3)n(C)c12 [Example 22, (1R,4R,7R)-2-{2-[1-(cyclopropylmethyl)-7-(1-methylazetidin-3-yl)-1H-indol-2-yl]-7-methoxy-1-methyl-1H-1,3-benzodiazole-5-carbonyl}-2-azabicyclo[2.2.1]heptan-7-amine]
61 nM	–	COc1cc(C(=O)N2C[C@H]3CC[C@@H]2[C@@H]3N)cc2nc(-c3cc4cccc(C5CCC(O)CC5)c4n3CC3CC3)n(C)c12 (stereo partly drawn) [Example 24, 4-(2-{5-[(1R,4R,7R)-7-amino-2-azabicyclo[2.2.1]heptane-2-carbonyl]-7-methoxy-1-methyl-1H-1,3-benzodiazol-2-yl}-1-(cyclopropylmethyl)-1H-indol-7-yl)cyclohexan-1-ol]
63 nM	–	COc1cc(C(=O)N2C[C@H]3CC[C@@H]2[C@@H]3N)cc2nc(-c3cc4cccc(C5COC5)c4n3CC3CC3)n(C)c12 [Example 25, (1R,4R,7R)-2-{2-[1-(cyclopropylmethyl)-7-(oxetan-3-yl)-1H-indol-2-yl]-7-methoxy-1-methyl-1H-1,3-benzodiazole-5-carbonyl}-2-azabicyclo[2.2.1]heptan-7-amine]
80 nM	–	COc1cc(C(=O)N2C[C@H]3CC[C@@H]2[C@@H]3N)cc2nc(-c3cc4cccc(C5CCS(=O)(=O)C5)c4n3CC3CC3)n(C)c12 (stereo partly drawn) [Example 30, ((1R,4R,7R)-7-amino-2-azabicyclo[2.2.1]heptan-2-yl)(2-(1-(cyclopropylmethyl)-7-(1,1-dioxidotetrahydrothiophen-3-yl)-1H-indol-2-yl)-7-methoxy-1-methyl-1H-benzo[d]imidazol-5-yl)methanone]
94 nM	–	COc1cc(C(=O)N2C[C@H]3CC[C@@H]2[C@@H]3N)cc2nc(-c3cc4cccc(C5CCCOC5)c4n3CC3CC3)n(C)c12 (stereo partly drawn) [Example 34, (1R,4R,7R)-2-{2-[1-(cyclopropylmethyl)-7-(oxan-3-yl)-1H-indol-2-yl]-7-methoxy-1-methyl-1H-1,3-benzodiazole-5-carbonyl}-2-azabicyclo[2.2.1]heptan-7-amine]
–	26 nM	COc1cc(C(=O)N2C[C@H]3CC[C@@H]2[C@@H]3N)cc2nc(-c3cc4cccc(C5CN(C(C)=O)C5)c4n3CC3CC3)n(C)c12 [Example 37, 1-(3-(2-(5-((1R,4R,7R)-7-amino-2-azabicyclo[2.2.1]heptane-2-carbonyl)-7-methoxy-1-methyl-1H-benzo[d]imidazol-2-yl)-1-(cyclopropylmethyl)-1H-indol-7-yl)azetidin-1-yl)ethan-1-one]
73 nM	–	COc1cc(C(=O)N2C[C@H]3CC[C@@H]2[C@@H]3N)cc2nc(-c3cc4cccc(C5CCCN(C(C)=O)C5)c4n3CC3CC3)n(C)c12 (stereo partly drawn) [Example 38, 1-[3-(2-{5-[(1R,4R,7R)-7-amino-2-azabicyclo[2.2.1]heptane-2-carbonyl]-7-methoxy-1-methyl-1H-1,3-benzodiazol-2-yl}-1-(cyclopropylmethyl)-1H-indol-7-yl)piperidin-1-yl]ethan-1-one]

More lines, now with the values behind:

SMILES	IC50 [1]	IC50 (human PAD4, rapid-fire mass spectrum (RFMS) assay, read-out: hPAD4 RFMS IC50)
COc1cc(C(=O)N2C[C@H]3CC[C@@H]2[C@@H]3N)cc2nc(-c3cc4cccc(CCCCCCN)c4n3CC3CC3)n(C)c12 [Example 17, (1R,4R,7R)-2-{2-[7-(6-aminohexyl)-1-(cyclopropylmethyl)-1H-indol-2-yl]-7-methoxy-1-methyl-1H-1,3-benzodiazole-5-carbonyl}-2-azabicyclo[2.2.1]heptan-7-amine]	56 nM	–
COc1cc(C(=O)N2C[C@H]3CC[C@@H]2[C@@H]3N)cc2nc(-c3cc4cccc(CCC#N)c4n3CC3CC3)n(C)c12 [Example 19, 3-(2-{5-[(1R,4R,7R)-7-amino-2-azabicyclo[2.2.1]heptane-2-carbonyl]-7-methoxy-1-methyl-1H-1,3-benzodiazol-2-yl}-1-(cyclopropylmethyl)-1H-indol-7-yl)propanenitrile]	90 nM	–
COc1cc(C(=O)N2C[C@H]3CC[C@@H]2[C@@H]3N)cc2nc(-c3cc4cccc(CCC(N)=O)c4n3CC3CC3)n(C)c12 [Example 20, 3-(2-{5-[(1R,4R,7R)-7-amino-2-azabicyclo[2.2.1]heptane-2-carbonyl]-7-methoxy-1-methyl-1H-1,3-benzodiazol-2-yl}-1-(cyclopropylmethyl)-1H-indol-7-yl)propanamide]	47 nM	–
COc1cc(C(=O)N2C[C@H]3CC[C@@H]2[C@@H]3N)cc2nc(-c3cc4cccc(CCC(C)(C)O)c4n3CC3CC3)n(C)c12 [Example 21, 4-(2-{5-[(1R,4R,7R)-7-amino-2-azabicyclo[2.2.1]heptane-2-carbonyl]-7-methoxy-1-methyl-1H-1,3-benzodiazol-2-yl}-1-(cyclopropylmethyl)-1H-indol-7-yl)-2-methylbutan-2-ol]	86 nM	–
COc1cc(C(=O)N2C[C@H]3CC[C@@H]2[C@@H]3N)cc2nc(-c3cc4cccc(CCN5CCOC5=O)c4n3CC3CC3)n(C)c12 [Example 23, 3-[2-(2-{5-[(1R,4R,7R)-7-amino-2-azabicyclo[2.2.1]heptane-2-carbonyl]-7-methoxy-1-methyl-1H-1,3-benzodiazol-2-yl}-1-(cyclopropylmethyl)-1H-indol-7-yl)ethyl]-1,3-oxazolidin-2-one]	120 nM	–
COc1cc(C(=O)N2C[C@H]3CC[C@@H]2[C@@H]3N)cc2nc(-c3cc4cccc(CC5CNC5)c4n3CC3CC3)n(C)c12 [Example 26, (1R,4R,7R)-2-(2-{7-[(azetidin-3-yl)methyl]-1-(cyclopropylmethyl)-1H-indol-2-yl}-7-methoxy-1-methyl-1H-1,3-benzodiazole-5-carbonyl)-2-azabicyclo[2.2.1]heptan-7-amine]	41 nM	–
COc1cc(C(=O)N2C[C@H]3CC[C@@H]2[C@@H]3N)cc2nc(-c3cc4cccc(CCCS(C)(=O)=O)c4n3CC3CC3)n(C)c12 [Example 27, (1R,4R,7R)-2-{2-[1-(cyclopropylmethyl)-7-(3-methanesulfonylpropyl)-1H-indol-2-yl]-7-methoxy-1-methyl-1H-1,3-benzodiazole-5-carbonyl}-2-azabicyclo[2.2.1]heptan-7-amine]	74 nM	–
COc1cc(C(=O)N2C[C@H]3CC[C@@H]2[C@@H]3N)cc2nc(-c3cc4cccc(C5CCN(C(=O)OCc6ccccc6)C5)c4n3CC3CC3)n(C)c12 (stereo partly drawn) [Example 28, benzyl 3-(2-{5-[(1R,4R,7R)-7-amino-2-azabicyclo[2.2.1]heptane-2-carbonyl]-7-methoxy-1-methyl-1H-1,3-benzodiazol-2-yl}-1-(cyclopropylmethyl)-1H-indol-7-yl)pyrrolidine-1-carboxylate]	67 nM	–
COc1cc(C(=O)N2C[C@H]3CC[C@@H]2[C@@H]3N)cc2nc(-c3cc4cccc(CCn5cncn5)c4n3CC3CC3)n(C)c12 [Example 29, (1R,4R,7R)-2-{2-[1-(cyclopropylmethyl)-7-[2-(1H-1,2,4-triazol-1-yl)ethyl]-1H-indol-2-yl]-7-methoxy-1-methyl-1H-1,3-benzodiazole-5-carbonyl}-2-azabicyclo[2.2.1]heptan-7-amine]	56 nM	–
COc1cc(C(=O)N2C[C@H]3CC[C@@H]2[C@@H]3N)cc2nc(-c3cc4cccc(CC5CCOCC5)c4n3CC3CC3)n(C)c12 [Example 31, (1R,4R,7R)-2-{2-[1-(cyclopropylmethyl)-7-[(oxan-4-yl)methyl]-1H-indol-2-yl]-7-methoxy-1-methyl-1H-1,3-benzodiazole-5-carbonyl}-2-azabicyclo[2.2.1]heptan-7-amine]	198 nM	–
COc1cc(C(=O)N2C[C@H]3CC[C@@H]2[C@@H]3N)cc2nc(-c3cc4cccc(CCC5CCCNC5)c4n3CC3CC3)n(C)c12 (stereo partly drawn) [Example 32, (1R,4R,7R)-2-{2-[1-(cyclopropylmethyl)-7-[2-(piperidin-3-yl)ethyl]-1H-indol-2-yl]-7-methoxy-1-methyl-1H-1,3-benzodiazole-5-carbonyl}-2-azabicyclo[2.2.1]heptan-7-amine]	32 nM	–
COc1cc(C(=O)N2C[C@H]3CC[C@@H]2[C@@H]3N)cc2nc(-c3cc4cccc(CCc5c(C)n[nH]c5C)c4n3CC3CC3)n(C)c12 [Example 33, (1R,4R,7R)-2-{2-[1-(cyclopropylmethyl)-7-[2-(3,5-dimethyl-1H-pyrazol-4-yl)ethyl]-1H-indol-2-yl]-7-methoxy-1-methyl-1H-1,3-benzodiazole-5-carbonyl}-2-azabicyclo[2.2.1]heptan-7-amine]	129 nM	–
COc1cc(C(=O)N2C[C@H]3CC[C@@H]2[C@@H]3N)cc2nc(-c3cc4cccc(CCO)c4n3CC3CC3)n(C)c12 [Example 35, 2-(2-{5-[(1R,4R,7R)-7-amino-2-azabicyclo[2.2.1]heptane-2-carbonyl]-7-methoxy-1-methyl-1H-1,3-benzodiazol-2-yl}-1-(cyclopropylmethyl)-1H-indol-7-yl)ethan-1-ol]	102 nM	–
COc1cc(C(=O)N2C[C@H]3CC[C@@H]2[C@@H]3N)cc2nc(-c3cc4cccc(CC5CCCCO5)c4n3CC3CC3)n(C)c12 (stereo partly drawn) [Example 36, (1R,4R,7R)-2-{2-[1-(cyclopropylmethyl)-7-[(oxan-2-yl)methyl]-1H-indol-2-yl]-7-methoxy-1-methyl-1H-1,3-benzodiazole-5-carbonyl}-2-azabicyclo[2.2.1]heptan-7-amine]	199 nM	–
